Reference: ChEMBL document CHEMBL1135295, “Novel camptothecin derivatives. Part 1: oxyalkanoic acid esters of camptothecin and their in vitro and in vivo antitumor activity” (2002)

Tests used:
NCI/ADR-RES = test: Compound was tested in vitro for cytotoxicity against MCF-7ADR, human breast cancer cells (taxol-resistant) at a drug concentration producing 50% inhibition of colony formation; format: functional; conditions: read-out: ID50 (the source's name)
Mus musculus [1] = species on record: Mus musculus; test: The tumor growth value was reported as ratio of surviving days of mice treated with anticancer drug to surviving days of control mice; format: functional
PC-3 = test: Compound was tested in vitro for cytotoxicity against PC-3, human prostate cancer cells (taxol-sensitive) at a drug concentration producing 50% inhibition of colony formation; format: functional; conditions: read-out: ID50 (the source's name)
Mus musculus [2] = test: Compound was tested in vivo for antitumor activity, reported as non toxic dose (NTD) in mice injected intraperitoneally with drug
HCT-116/VM46 = test: Compound was tested in vitro for cytotoxicity against VM46 subline of HCT116 (taxol-resistant) at a drug concentration producing 50% inhibition of colony formation; conditions: Homo sapiens, read-out: ID50 (the source's name)
HCT-116 = test: Compound was tested in vitro for cytotoxicity against HCT116, human colon cancer cells (taxol-sensitive) at a drug concentration producing 50% inhibition of colony formation; conditions: read-out: ID50 (the source's name)
Mus musculus [3] = test: Compound was tested in vivo for antitumor activity, reported as maximum tolerated dose (MTD) in mice injected intraperitoneally with drug

For CC[C@@]1(OC(=O)COc2ccc(Br)cc2)C(=O)OCc2c1cc1n(c2=O)Cc2cc3ccccc3nc2-1, which IC50 (NCI/ADR-RES) is on record?
Its IC50 is 5.5 nM.

What about the T/C (Mus musculus [1]) of the same compound?
Its T/C is 300%.

And the IC50 (PC-3)?
Its IC50 is 3.2 nM.

And the NTD (Mus musculus [2])?
The NTD was 150 mg/kg.

And the IC50 (HCT-116/VM46)?
Its IC50 is 1.9 nM.

And the IC50 (HCT-116)?
The IC50 was 3 nM.

Which results are given for CC[C@@]1(OC(=O)CCOc2ccccc2)C(=O)OCc2c1cc1n(c2=O)Cc2cc3ccccc3nc2-1?
IC50 (NCI/ADR-RES): 28 nM; T/C (Mus musculus [1]): 133%; NTD (Mus musculus [2]): 150 mg/kg; IC50 (HCT-116/VM46): 7 nM; IC50 (HCT-116): 8 nM

How did the IC50 (NCI/ADR-RES) turn out when CC[C@@]1(OC(=O)CO[C@@H]2C[C@H](C)CC[C@H]2C(C)C)C(=O)OCc2c1cc1n(c2=O)Cc2cc3ccccc3nc2-1 was run?
The IC50 was 7.2 nM.

What about the T/C (Mus musculus [1]) of the same compound?
The T/C was 200%.

And the IC50 (PC-3)?
Its IC50 is 6.2 nM.

And the NTD (Mus musculus [2])?
Its NTD is 100 mg/kg.

And the IC50 (HCT-116/VM46)?
The IC50 was 2.5 nM.

What about the IC50 (HCT-116) of the same compound?
Its IC50 is 3.6 nM.

CC[C@@]1(OC(=O)CCCOc2ccc(Cl)cc2Cl)C(=O)OCc2c1cc1n(c2=O)Cc2cc3ccccc3nc2-1 was tested. Which IC50 (NCI/ADR-RES) did it give?
The IC50 was 89 nM.

What about the T/C (Mus musculus [1]) of the same compound?
The T/C was 250%.

What about the NTD (Mus musculus [2]) of the same compound?
Its NTD is 100 mg/kg.

What about the IC50 (HCT-116/VM46) of the same compound?
The IC50 was 27 nM.

What about the IC50 (HCT-116) of the same compound?
The IC50 was 39 nM.

What does the source list for CC[C@@]1(OC(=O)CCCCOc2ccc(F)cc2Br)C(=O)OCc2c1cc1n(c2=O)Cc2cc3ccccc3nc2-1?
IC50 (NCI/ADR-RES): > 100 nM; NTD (Mus musculus [2]): 150 mg/kg; IC50 (HCT-116/VM46): 94 nM; IC50 (HCT-116): > 100 nM

Which results are given for CC(=O)O[C@H]1C(=O)[C@@]2(C)[C@H]([C@H](OC(=O)c3ccccc3)[C@]3(O)C[C@H](OC(=O)[C@H](O)[C@@H](NC(=O)c4ccccc4)c4ccccc4)C(C)=C1C3(C)C)[C@]1(OC(C)=O)CO[C@@H]1C[C@@H]2O [PACLITAXEL]?
IC50 (NCI/ADR-RES): > 10000 nM; T/C (Mus musculus [1]): 150%; IC50 (PC-3): 4 nM; MTD (Mus musculus [3]): 40.6 mg/kg; IC50 (HCT-116/VM46): > 50 nM

Which IC50 (NCI/ADR-RES) does the source give for CC[C@@]1(OC(=O)COc2ccc3ccccc3c2)C(=O)OCc2c1cc1n(c2=O)Cc2cc3ccccc3nc2-1 here?
Its IC50 is 4.1 nM.

What about the T/C (Mus musculus [1]) of the same compound?
Its T/C is 117%.

What about the IC50 (PC-3) of the same compound?
Its IC50 is 3.9 nM.

And the NTD (Mus musculus [2])?
The NTD was 150 mg/kg.

And the IC50 (HCT-116/VM46)?
Its IC50 is 1.8 nM.

And the IC50 (HCT-116)?
Its IC50 is 3 nM.

CCc1c2c(nc3ccc(OC(=O)N4CCC(N5CCCCC5)CC4)cc13)-c1cc3c(c(=O)n1C2)COC(=O)[C@]3(O)CC [IRINOTECAN] was tested. Which IC50 (NCI/ADR-RES) did it give?
Its IC50 is over 500 nM.

And the T/C (Mus musculus [1])?
Its T/C is 217%.

And the MTD (Mus musculus [3])?
Its MTD is 200 mg/kg.

And the IC50 (HCT-116/VM46)?
The IC50 was 220 nM.

And the IC50 (HCT-116)?
The IC50 was 540 nM.

Which results are given for CC[C@@]1(OC(=O)COc2ccc(Cl)cc2C)C(=O)OCc2c1cc1n(c2=O)Cc2cc3ccccc3nc2-1?
IC50 (NCI/ADR-RES): 4.3 nM; T/C (Mus musculus [1]): 217%; IC50 (PC-3): 3.5 nM; NTD (Mus musculus [2]): 150 mg/kg; IC50 (HCT-116/VM46): 0.9 nM; IC50 (HCT-116): 2.7 nM

Which IC50 (NCI/ADR-RES) does the source give for CC[C@@]1(OC(=O)COc2ccc([N+](=O)[O-])cc2)C(=O)OCc2c1cc1n(c2=O)Cc2cc3ccccc3nc2-1 here?
The IC50 was 7 nM.

And the T/C (Mus musculus [1])?
Its T/C is 250%.

What about the IC50 (PC-3) of the same compound?
The IC50 was 4.8 nM.

What about the NTD (Mus musculus [2]) of the same compound?
Its NTD is 100 mg/kg.

And the IC50 (HCT-116/VM46)?
The IC50 was 3 nM.

What about the IC50 (HCT-116) of the same compound?
The IC50 was 3.3 nM.

How did the IC50 (NCI/ADR-RES) turn out when CC[C@@]1(OC(=O)COc2ccc3c(c2)OCO3)C(=O)OCc2c1cc1n(c2=O)Cc2cc3ccccc3nc2-1 was run?
The IC50 was 5 nM.

And the T/C (Mus musculus [1])?
Its T/C is 200%.

What about the IC50 (PC-3) of the same compound?
The IC50 was 4.6 nM.

And the NTD (Mus musculus [2])?
The NTD was 45 mg/kg.

And the IC50 (HCT-116/VM46)?
The IC50 was 2.4 nM.

And the IC50 (HCT-116)?
Its IC50 is 3.1 nM.

CC[C@@]1(O)C(=O)OCc2c1cc1n(c2=O)Cc2cc3ccccc3nc2-1 [CAMPTOTHECIN] was tested. Which IC50 (NCI/ADR-RES) did it give?
The IC50 was 3.9 nM.

What about the T/C (Mus musculus [1]) of the same compound?
The T/C was 183%.

And the IC50 (PC-3)?
The IC50 was 3.8 nM.

What about the MTD (Mus musculus [3]) of the same compound?
Its MTD is 12 mg/kg.

What about the IC50 (HCT-116/VM46) of the same compound?
The IC50 was 2.4 nM.

And the IC50 (HCT-116)?
The IC50 was 2.8 nM.

What does the source list for CC[C@@]1(OC(=O)COc2ccc3c(C)c(Cl)c(=O)oc3c2)C(=O)OCc2c1cc1n(c2=O)Cc2cc3ccccc3nc2-1?
IC50 (NCI/ADR-RES): 5.2 nM; T/C (Mus musculus [1]): 200%; IC50 (PC-3): 3 nM; NTD (Mus musculus [2]): 75 mg/kg; IC50 (HCT-116/VM46): 0.7 nM; IC50 (HCT-116): 3.5 nM
